Data reported in article PMC3401513 (Molecular imaging and biology : MIB : the official …, 2012).
“And” between values parts separate entries of the source, which are not always exact repeats. Equal values may be shown once. Read-outs that look alike come from different tables or passages of the source.

Biological target: integrin αvβ3 (Homo sapiens, UniProt P05106+P06756)
Conditions: for tumor washout (time-activity curves): MDA-MB-435 tumor, unblocked; for decrease in BpND after blocking with an excess amount of unlabeled RGD peptide: blocked vs unblocked
[1] = 60-min dynamic PET, n = 4/group
[2] = Blocked: c(RGDyK) injected 10 min before scanning, tumor region, MDA-MB-435 tumor-bearing mice, 60-min dynamic PET, mean ± SD, n = 4/group
[3] = Blocked: c(RGDyK) injected 10 min before scanning, tumor region, MDA-MB-435 tumor-bearing mice, 60-min dynamic PET, three-compartment model fit, mean ± SD, n = 4/group
[4] = MDA-MB-435 tumor-bearing mice, n = 4/group

integrin αvβ3, sequence (P06756 31-889 limits assumed): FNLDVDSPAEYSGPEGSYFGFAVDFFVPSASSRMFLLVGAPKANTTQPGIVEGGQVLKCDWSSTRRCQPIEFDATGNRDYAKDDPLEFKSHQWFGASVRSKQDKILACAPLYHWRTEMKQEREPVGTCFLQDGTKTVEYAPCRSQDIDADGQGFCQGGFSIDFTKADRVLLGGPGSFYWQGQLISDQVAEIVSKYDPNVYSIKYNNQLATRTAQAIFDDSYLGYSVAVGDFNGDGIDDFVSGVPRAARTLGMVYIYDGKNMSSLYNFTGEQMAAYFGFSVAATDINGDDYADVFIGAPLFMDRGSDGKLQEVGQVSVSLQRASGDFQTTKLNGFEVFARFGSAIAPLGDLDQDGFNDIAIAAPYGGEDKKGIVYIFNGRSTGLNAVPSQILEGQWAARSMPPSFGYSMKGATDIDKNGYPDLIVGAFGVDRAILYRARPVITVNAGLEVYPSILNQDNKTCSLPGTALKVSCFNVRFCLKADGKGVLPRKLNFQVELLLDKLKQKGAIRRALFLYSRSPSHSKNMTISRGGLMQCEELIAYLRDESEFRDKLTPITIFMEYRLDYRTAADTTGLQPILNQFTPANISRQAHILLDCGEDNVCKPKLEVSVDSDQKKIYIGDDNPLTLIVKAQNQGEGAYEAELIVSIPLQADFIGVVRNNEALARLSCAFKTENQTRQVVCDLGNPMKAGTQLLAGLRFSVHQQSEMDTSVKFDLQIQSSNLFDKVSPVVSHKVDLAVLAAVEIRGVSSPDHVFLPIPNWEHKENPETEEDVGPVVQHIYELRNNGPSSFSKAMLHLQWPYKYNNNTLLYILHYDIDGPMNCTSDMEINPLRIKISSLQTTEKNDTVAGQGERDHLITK
integrin αvβ3, sequence (P06756 891-1048 partner limits assumed): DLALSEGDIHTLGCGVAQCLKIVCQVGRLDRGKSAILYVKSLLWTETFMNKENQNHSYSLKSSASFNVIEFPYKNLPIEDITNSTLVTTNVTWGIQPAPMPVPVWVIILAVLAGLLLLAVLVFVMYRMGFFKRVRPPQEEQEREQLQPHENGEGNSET
integrin αvβ3, sequence (P05106 27-788): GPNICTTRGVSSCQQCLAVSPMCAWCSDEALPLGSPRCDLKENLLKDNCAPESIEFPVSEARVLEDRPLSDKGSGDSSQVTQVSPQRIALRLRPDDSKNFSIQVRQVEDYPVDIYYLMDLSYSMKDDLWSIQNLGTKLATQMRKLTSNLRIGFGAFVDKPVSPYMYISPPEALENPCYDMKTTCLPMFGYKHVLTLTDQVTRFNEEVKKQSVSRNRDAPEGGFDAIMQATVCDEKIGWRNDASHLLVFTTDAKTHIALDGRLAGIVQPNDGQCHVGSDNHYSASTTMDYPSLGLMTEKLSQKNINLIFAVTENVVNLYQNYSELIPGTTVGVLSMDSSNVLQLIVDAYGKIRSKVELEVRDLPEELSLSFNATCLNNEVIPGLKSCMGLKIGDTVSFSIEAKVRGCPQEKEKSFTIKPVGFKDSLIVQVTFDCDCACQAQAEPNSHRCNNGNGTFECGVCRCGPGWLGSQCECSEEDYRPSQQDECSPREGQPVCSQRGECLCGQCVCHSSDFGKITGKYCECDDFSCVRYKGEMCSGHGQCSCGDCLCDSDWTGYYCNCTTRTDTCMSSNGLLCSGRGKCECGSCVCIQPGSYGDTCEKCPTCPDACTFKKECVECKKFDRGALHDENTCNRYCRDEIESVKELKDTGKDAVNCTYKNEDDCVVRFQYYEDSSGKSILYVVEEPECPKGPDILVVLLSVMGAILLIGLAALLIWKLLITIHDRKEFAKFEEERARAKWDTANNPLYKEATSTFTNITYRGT

Row | Substance | tumor washout (time-activity curves) [1] | BpND (binding potential = k3/k4) [2] | k3 (on-rate for specific binding) [3] [min⁻¹] | k4 (target dissociation rate) [3] [min⁻¹] | BpND (binding potential = k3/k4) (Unblock, tumor region, MDA-MB-435 tumor-bearing mice, 60-min dynamic PET, three-compartment model, mean ± SD, n = 4/group, listed as RGD Dimer) | specific bound component (Cm) in the tumor region relative to the monomer (at 1-h, separated by model fitting) | decrease in BpND after blocking with an excess amount of unlabeled RGD peptide [4] | K1 (transfer from arterial plasma to tissue) (mouse, in vivo) [mL/g/min] | BpND (binding potential = k3/k4) (Unblock, tumor region, MDA-MB-435 tumor-bearing mice, 60-min dynamic PET, three-compartment model, mean ± SD, n = 4/group, listed as RGD Monomer) | BpND (binding potential = k3/k4) (Unblock, tumor region, MDA-MB-435 tumor-bearing mice, 60-min dynamic PET, three-compartment model, mean ± SD, n = 4/group) | k2 (clearance from tissue) (mouse, in vivo) [min⁻¹]
1 | ^18F-FP-PEG3-E[c(RGDyK)]2 [^18F-FPPRGD2] | much slower tumor washout | 1.257±0.293 | 0.064 ± 0.023 | 0.050 ± 0.009 | 5.865±0.312 | almost twice as much | ~ 80% | 0.082 ± 0.031 | – | – | –
2 | ^18F-FP-c(RGDyK) [^18F-FPRGD] | – | 1.110±0.155 | 0.051 ± 0.016 | – | – | – | ~ 60% | 0.276 ± 0.256 | 2.747±0.483 | – | –
3 | ^18F-FP-c(RADyK) [^18F-FPRAD, reference compound] | most rapid tumor washout | – | – | – | – | – | – | – | – | 0.89 ± 0.19 and 0.893±0.192 | 0.334 ± 0.092
